These results are taken from US20120065063A1, “3-Aryl-4-(2,6-dimethylbenzylidene)isoxazol-5(4H)-ones as Fungicides” (Bayer CropScience AG, priority 2010, published 2012).

The structures appear in SMILES notation.

A short description of the first series: log P by HPLC on reversed-phase columns (EEC directive 79/831 Annex V.A8). The series is classed as physicochemical. Particulars: acidic range pH 2.7, 0.1% aqueous formic acid/acetonitrile. How it is done: The log P values were measured according to EEC directive 79/831 Annex V.A8 by HPLC (High Performance Liquid Chromatography) on reversed-phase columns (C 18), using the method below:
The determination was carried out in the acidic range at pH 2.7 using the mobile phases 0.1% aqueous formic acid and acetonitrile; linear gradient from 10% acetonitrile to 95% acetonitrile.
What is called log P is the decadic logarithm of the partition coefficient of the neutral form, usually between octanol and water. A higher log P goes with a more lipophilic compound. In the case of `Cc1cc(C)c(C=C2C(=O)ON=C2c2ccccc2C(F)(F)F)c(C)c1` [Compound I-1], the “log P” value came out at 4.34.
For the molecule `Cc1cc(C)c(C=C2C(=O)ON=C2c2ccccc2OC(F)(F)F)c(C)c1` [Compound I-2], the “log P” value is given as 4.59.
Still for that read-out and setting: the value for `Cc1cc(C)c(C=C2C(=O)ON=C2c2ccccc2[N+](=O)[O-])c(C)c1` [Compound I-3] was 3.76; that for `Cc1cccc(C)c1C=C1C(=O)ON=C1c1ccccc1[N+](=O)[O-]` [Compound I-4] was 3.40; that for `Cc1cc(C)c(C=C2C(=O)ON=C2c2cccc(C)c2C)c(C)c1` [Compound I-8] was 4.68.
In the case of `Cc1ccccc1C1=NOC(=O)C1=Cc1c(C)cccc1C` [Compound I-9], the “log P” value is reported as 3.95.
Regarding `Cc1cccc(C2=NOC(=O)C2=Cc2c(C)cccc2C)c1C` [Compound I-12], the “log P” value is recorded as 4.26.
On the same count and under the same terms, the value for `Cc1cc(C)c(C=C2C(=O)ON=C2c2ccccc2)c(C)c1` [Compound I-13] was 4.01.
On to `COc1cccc(OC)c1C1=NOC(=O)C1=Cc1c(C)cc(C)cc1C` [Compound I-15], for which the “log P” value is reported as 3.95.
As for `COc1cccc(C2=NOC(=O)C2=Cc2c(C)cc(C)cc2C)c1OC` [Compound I-16], the “log P” value turned out to be 4.08.
Take `COc1ccc(F)cc1C1=NOC(=O)C1=Cc1c(C)cc(C)cc1C` [Compound I-17]: the “log P” value is 4.12.
Turning to `COc1cccc(C2=NOC(=O)C2=Cc2c(C)cccc2C)c1OC` [Compound I-20], the “log P” value was 3.73.
Regarding `COc1ccc(F)cc1C1=NOC(=O)C1=Cc1c(C)cccc1C` [Compound I-21], the “log P” value stood at 3.75.
For `Cc1cc(C)c(C=C2C(=O)ON=C2c2ccccc2I)c(C)c1` [Compound I-22], the “log P” value is on record as 4.51.
Take `Cc1cc(C)c(C=C2C(=O)ON=C2c2ccccc2F)c(C)c1` [Compound I-23]: the “log P” value amounted to 4.07.
Regarding `CCOc1ccccc1C1=NOC(=O)C1=Cc1c(C)cc(C)cc1C` [Compound I-26], the “log P” value is on record as 4.42.
Turning to `CCOc1ccccc1C1=NOC(=O)C1=Cc1c(C)cccc1C` [Compound I-27], the “log P” value is given as 4.00.
Same read-out and setting: the value for `Cc1cc(C)c(C=C2C(=O)ON=C2c2ccccc2Cl)c(C)c1` [Compound I-28] was 4.38; that for `Cc1cccc(C)c1C=C1C(=O)ON=C1c1ccccc1Cl` [Compound I-29] was 3.97; that for `Cc1cc(C)c(C=C2C(=O)ON=C2c2ccccc2OCc2ccccc2)c(C)c1` [Compound I-30] was 4.86.
Same read-out and setting: the value for `Cc1cccc(C)c1C=C1C(=O)ON=C1c1ccccc1OCc1ccccc1` [Compound I-31] was 4.51; that for `Cc1cc(C)c(C=C2C(=O)ON=C2c2ccccc2SC(F)F)c(C)c1` [Compound I-32] was 4.27.
As to `Cc1cc(C)c(C=C2C(=O)ON=C2c2cccc(Cl)c2Cl)c(C)c1` [Compound I-33], the “log P” value is reported as 4.80.
Same read-out and setting: the value for `Cc1cccc(C)c1C=C1C(=O)ON=C1c1cccc(Cl)c1Cl` [Compound I-34] was 4.31; that for `Cc1cc(C)c(C=C2C(=O)ON=C2c2ccc(Cl)cc2Cl)c(C)c1` [Compound I-35] was 4.94.
On the same count and under the same terms, in the case of `Cc1cc(C)c(C=C2C(=O)ON=C2c2cc(F)ccc2F)c(C)c1` [Compound I-36] it was 4.12; in that of `Cc1cccc(C)c1C=C1C(=O)ON=C1c1cc(F)ccc1F` [Compound I-37], 3.77; in that of `Cc1cc(C)c(C=C2C(=O)ON=C2c2cc(F)ccc2Cl)c(C)c1` [Compound I-38], 4.42.
With `Cc1cccc(C)c1C=C1C(=O)ON=C1c1cc(F)ccc1Cl` [Compound I-39], the “log P” value stood at 3.96.
`Cc1cc(C)c(C=C2C(=O)ON=C2c2cc(Cl)ccc2Cl)c(C)c1` [Compound I-40]: the “log P” value was 4.71.
Regarding `Cc1cc(C)c(C=C2C(=O)ON=C2c2cc(Br)ccc2Cl)c(C)c1` [Compound I-41], the “log P” value was 4.83.
Same read-out and setting: the value for `Cc1cccc(C)c1C=C1C(=O)ON=C1c1cc(Br)ccc1Cl` [Compound I-42] was 4.46; that for `Cc1cc(C)c(C=C2C(=O)ON=C2c2cc(Br)ccc2Br)c(C)c1` [Compound I-43] was 5.05; that for `Cc1cccc(C)c1C=C1C(=O)ON=C1c1cc(Br)ccc1Br` [Compound I-44] was 4.57.
Still for that read-out and setting: in the case of `Cc1cc(C)c(C=C2C(=O)ON=C2c2cccc(C(F)(F)F)c2)c(C)c1` [Compound I-45] it was 4.62.
For the molecule `Cc1cc(C)c(C=C2C(=O)ON=C2c2cccc([N+](=O)[O-])c2)c(C)c1` [Compound I-46], the “log P” value came out at 3.85.
Take `Cc1cccc(C2=NOC(=O)C2=Cc2c(C)cc(C)cc2C)c1` [Compound I-47]: the “log P” value was 4.45.
Turning to `Cc1cc(C)cc(C2=NOC(=O)C2=Cc2c(C)cc(C)cc2C)c1` [Compound I-48], the “log P” value is recorded as 4.88.
As to `Cc1cc(C)c(C=C2C(=O)ON=C2c2ccc(C)c(C)c2)c(C)c1` [Compound I-49], the “log P” value stood at 4.81.
Regarding `Cc1ccc(C2=NOC(=O)C2=Cc2c(C)cccc2C)cc1C` [Compound I-50], the “log P” value turned out to be 4.41.
As for `Cc1cc(C)cc(C2=NOC(=O)C2=Cc2c(C)cccc2C)c1` [Compound I-51], the “log P” value worked out at 4.49.
Still for that read-out and setting: in the case of `Cc1cccc(C)c1C=C1C(=O)ON=C1c1ccccc1` [Compound I-52] it was 3.68.
The same measure, in the same setting: in the case of `COc1cc(OC)cc(C2=NOC(=O)C2=Cc2c(C)cc(C)cc2C)c1` [Compound I-53] it was 4.21; in that of `COc1ccc(C2=NOC(=O)C2=Cc2c(C)cc(C)cc2C)cc1OC` [Compound I-54], 4.09.
In the case of `Cc1cc(C)c(C=C2C(=O)ON=C2c2cccc(F)c2)c(C)c1` [Compound I-55], the “log P” value is reported as 4.15.
As to `Cc1cc(C)c(C=C2C(=O)ON=C2c2cccc(Cl)c2)c(C)c1` [Compound I-56], the “log P” value worked out at 4.48.
With `Cc1cc(C)c(C=C2C(=O)ON=C2c2ccc(Cl)c(Cl)c2)c(C)c1` [Compound I-57], the “log P” value was found to be 4.95.
Consider `Cc1cc(C)c(C=C2C(=O)ON=C2c2cc(Cl)cc(Cl)c2)c(C)c1` [Compound I-58], for which the “log P” value was found to be 5.01.
Same read-out and setting: the value for `Cc1cc(C)c(C=C2C(=O)ON=C2c2ccc(C(F)(F)F)cc2)c(C)c1` [Compound I-59] was 4.62; that for `Cc1cc(C)c(C=C2C(=O)ON=C2c2ccc(OC(F)(F)F)cc2)c(C)c1` [Compound I-60] was 4.73; that for `Cc1cc(C)c(C=C2C(=O)ON=C2c2ccc(C(C)(C)C)cc2)c(C)c1` [Compound I-61] was 5.43.
On the same count and under the same terms, in the case of `Cc1cc(C)c(C=C2C(=O)ON=C2c2ccc(OC(C)C)cc2)c(C)c1` [Compound I-62] it was 4.70; in that of `Cc1cc(C)c(C=C2C(=O)ON=C2c2ccc(-c3ccccc3)cc2)c(C)c1` [Compound I-63], 5.16; in that of `Cc1cc(C)c(C=C2C(=O)ON=C2c2ccc(OCc3ccccc3)cc2)c(C)c1` [Compound I-64], 5.01.
With `Cc1cc(C)c(C=C2C(=O)ON=C2c2ccc([N+](=O)[O-])cc2)c(C)c1` [Compound I-65], the “log P” value worked out at 3.99.
With `Cc1ccc(C2=NOC(=O)C2=Cc2c(C)cc(C)cc2C)cc1` [Compound I-66], the “log P” value is reported as 4.44.
With `COc1ccc(C2=NOC(=O)C2=Cc2c(C)cc(C)cc2C)cc1` [Compound I-67], the “log P” value was 4.00.
With `CCOc1ccc(C2=NOC(=O)C2=Cc2c(C)cc(C)cc2C)cc1` [Compound I-69], the “log P” value is listed as 4.46.

Staying with this series, now noted: reversed-phase HPLC column (C18), preparation examples, acidic range pH 2.7, formic acid, read-out: log P (HCOOH).
For the molecule `COc1ccccc1C1=NOC(=O)C1` [3-(2-methoxyphenyl)isoxazol-5(4H)-one], the chromatographic logP is 1.67.
For the molecule `O=C1CC(c2cccc(C(F)(F)F)c2)=NO1` [3-(3-trifluoromethylphenyl)isoxazol-5(4H)-one], the chromatographic logP came out at 2.4.
With `O=C1CC(c2ccc(F)cc2)=NO1` [3-(4-fluorophenyl)isoxazol-5(4H)-one], the chromatographic logP came to 1.74.
As to `Cc1cc(C)c(/C=C2\C(=O)ON=C2c2cccc(C(F)(F)F)c2)c(C)c1` [Compound 1-59, 4-(2,4,6-trimethylbenzylidene)-3-(3-trifluoromethylphenyl)-1,2-oxazol-5(4H)-one], the chromatographic logP is 4.62.
With `COc1ccccc1C1=NOC(=O)/C1=C\c1c(C)cccc1C` [Compound I-18, 4-(2,6-dimethylbenzylidene)-3-(2-methoxyphenyl)-1,2-oxazol-5(4H)-one], the chromatographic logP was 3.69.
For `Cc1cc(C)c(/C=C2\C(=O)ON=C2c2ccc(F)cc2)c(C)c1` [Compound I-68, 4-(2,4,6-trimethylbenzylidene)-3-(4-fluorophenyl)-1,2-oxazol-5(4H)-one], the chromatographic logP amounted to 4.08.
On to `COC(=O)CC(=O)c1cccc(C(F)(F)F)c1` [methyl 3-trifluoromethylbenzoylacetate], for which the chromatographic logP stood at 2.57.
